According to PubChem BioAssay AID743267 (Broad Institute, 2014):

Test system: human bronchial epithelial cells, CFTR corrector, plate reader
Assay: CFTR ΔF508 corrector activity in bronchial cells, dose response, human bronchial epithelial cells, plate reader, cherry-pick, two tests (AID 743267)
[1] = measured here: test 2 replicate run

Compound | AC50 [1] | AC50 (measured here: test 1 replicate run)
CC(=O)Oc1c(C)cc(Cl)cc1C(=O)Nc1ccc([N+](=O)[O-])cc1Cl | 1.38 µM | 
O=C(NCCCN1CCOCC1)c1cc(S(=O)(=O)N2CCOCC2)c(Cl)cc1Cl | > 50 µM | 
Cc1ccc2c(CN3CCN(S(=O)(=O)c4ccc(Cl)cc4)CC3)cc(=O)oc2c1C | 11.6 µM | 
COc1cc(-c2noc(C)c2C#Cc2ccsc2)cc(OC)c1OC | 0.537 µM | 
CC1=NCCc2c1[nH]c1cc(O)ccc21 | 41.4 µM | 
Cc1cccc(N2CCN(Cc3cn(C)nc3-c3ccccc3F)CC2)n1 | 2.43 µM | 
COc1ccc2c(c1)/C(=C/c1cc(OC)c(OC)c(OC)c1)C(=O)N2 | 2.04 µM | 
Cc1ccc(-c2ccc3c(c2)O[C@H](CN(C)Cc2ccccn2)[C@@H](C)CN([C@@H](C)CO)S3(=O)=O)cc1 |  | 18 µM
Oc1ccc2ccccc2c1/C=C/c1ccc2c(Br)cc(Br)c(O)c2n1 | 21.5 µM | 
COc1ccccc1C(=O)NC(=S)/C=C1/N(C)c2ccccc2C1(C)C | > 50 µM | 
COc1ccc(-c2cc(NC=O)c3ncc(-c4ccc(OC)c(OC)c4)n3c2)cc1 | 22.3 µM | 
O=C(N/N=C/c1c(O)ccc2ccccc12)C(=O)N1CCCC1 | 12.6 µM | 
COc1ccc(CNS(=O)(=O)c2cc(-c3cc(C)no3)ccc2C(C)C)cc1 | 2.16 µM | 
CCOc1ccc(-c2cc(C(=O)N3CCN(c4ccccn4)CC3)c3ccccc3n2)cc1 | 16 µM | 
COc1ccc(C2c3ccc4ccccc4c3Oc3ncn(CCCO)c(=N)c32)cc1OC (stereo not given) | 25.5 µM | 
CC1(C)Cc2c(c(-c3ccco3)nc3sc4c(NCCN5CCOCC5)ncnc4c23)CO1 | 3.92 µM | 
c1ccc2c(c1)C1=NCCN1c1ccccc1-2 | 2.93 µM | 
O=C(NC(=S)Nc1ccc(-c2ccccc2)cc1)c1ccccc1 | > 50 µM | 
COc1ccc(-c2ccc3oc(-c4ccc(OC)cc4)c(C#CCO)c3c2)cc1 | > 50 µM | 
CCN(CC)CCn1nc2c3c(cccc3c1=O)-c1ccccc1-2 | 1.1 µM | 
CC(=O)Nc1cccc(-c2ccnc3c2CC(C)(C(=O)Nc2ccc4c(c2)OCO4)O3)c1 (stereo not given) | 0.973 µM | 
COC(=O)c1[nH]c2c(c1C)C(=O)CC(c1cccc(OC)c1)C2 (stereo not given) | 0.965 µM | 
Cc1cc2nnc(SCC(=O)NCc3ccco3)n2c2ccccc12 | 6.63 µM | 
NS(=O)(=O)c1cc(C2(O)NC(=O)c3ccccc32)ccc1Cl (stereo not given) | > 50 µM | 
CCOC(=O)c1oc2ccc(S(=O)(=O)n3nc(-c4ccccc4)cc3N)cc2c1C | 6.82 µM | 
